Assay results as given in ChEMBL document CHEMBL3885881, “DrugMatrix”.

Species: Rattus norvegicus
Experiment: DrugMatrix - Regimen: Daily Repeat
Assay type: toxicity, organism-based, Sprague-Dawley
Set-up: regimen Daily Repeat, gender Male, age 6-8 weeks
Conditions: in vivo, po, route oral GAVAGE, vehicle 100 % WATER; for ABSOLUTE BASOPHIL / ABSOLUTE EOSINOPHIL / ABSOLUTE LYMPHOCYTE / ABSOLUTE MONOCYTE / ABSOLUTE SEGMENTED NEUTROPHIL / BASOPHIL / EOSINOPHIL / ERYTHROCYTE COUNT / HEMATOCRIT / HEMOGLOBIN / LEUKOCYTE COUNT / LYMPHOCYTE / MEAN CORPUSCULAR HEMOGLOBIN / MEAN CORPUSCULAR HEMOGLOBIN CONCENTRATION / MEAN CORPUSCULAR VOLUME / MONOCYTE / NEUTROPHIL / NUCLEATED RED BLOOD CELLS / PLATELET COUNT: tissue Blood; for ALANINE AMINOTRANSFERASE / ALBUMIN / ALKALINE PHOSPHATASE / ASPARTATE AMINOTRANSFERASE / BLOOD UREA NITROGEN / CARBON DIOXIDE / CHLORIDE / CHOLESTEROL / CREATINE PHOSPHOKINASE / CREATININE / GLUCOSE / LACTATE DEHYDROGENASE / LIPASE / PHOSPHORUS / POTASSIUM / SODIUM / TOTAL BILIRUBIN / TOTAL PROTEIN / URIC ACID: tissue Plasma
[1] = 0 mg/kg, 72 h, dose level Control, time 3 day
[2] = 0 mg/kg, 120 h, dose level Control, time 5 day
[3] = 100 mg/kg, 72 h, dose level Low, time 3 day

NCC1(CC(=O)O)CCCCC1 [GABAPENTIN]
ABSOLUTE BASOPHIL [1]: 0 CELLS/uL | ABSOLUTE EOSINOPHIL [1]: 133.83 CELLS/uL | ABSOLUTE LYMPHOCYTE [1]: 11674.67 CELLS/uL | ABSOLUTE MONOCYTE [1]: 65.33 CELLS/uL | ABSOLUTE SEGMENTED NEUTROPHIL [1]: 1559.5 CELLS/uL | BASOPHIL [1]: 0% | EOSINOPHIL [1]: 1% | ERYTHROCYTE COUNT [1]: 5.26 x10E6/uL | HEMATOCRIT [1]: 34.15% | HEMOGLOBIN [1]: 13.6 G/DL | LEUKOCYTE COUNT [1]: 13.43 x10E3/uL | LYMPHOCYTE [1]: 86.83% | MEAN CORPUSCULAR HEMOGLOBIN [1]: 25.87 pg | MEAN CORPUSCULAR HEMOGLOBIN CONCENTRATION [1]: 39.85 G/DL | MEAN CORPUSCULAR VOLUME [1]: 64.93 fL | MONOCYTE [1]: 0.5% | NEUTROPHIL [1]: 11.67% | NUCLEATED RED BLOOD CELLS [1]: 0.17 /100WBC | PLATELET COUNT [1]: 1188.5 x10E3/uL | ALANINE AMINOTRANSFERASE [1]: 48.5 u/L | ALBUMIN [1]: 4.1 G/DL | ALKALINE PHOSPHATASE [1]: 338.83 u/L | ASPARTATE AMINOTRANSFERASE [1]: 84.17 u/L | BLOOD UREA NITROGEN [1]: 15.17 mg/dL | CARBON DIOXIDE [1]: 26.83 mmol/L | CHLORIDE [1]: 101.33 MEQ/L | CHOLESTEROL [1]: 77 mg/dL | CREATINE PHOSPHOKINASE [1]: 600.83 u/L | CREATININE [1]: 0.15 mg/dL | GLUCOSE [1]: 161.67 mg/dL | LACTATE DEHYDROGENASE [1]: 222.17 u/L | LIPASE [1]: 10.17 u/L | PHOSPHORUS [1]: 12.63 mg/dL | POTASSIUM [1]: 6.36 MEQ/L | SODIUM [1]: 143.17 MEQ/L | TOTAL BILIRUBIN [1]: 0.17 mg/dL | TOTAL PROTEIN [1]: 5.65 G/DL | URIC ACID [1]: 1.38 mg/dL | ABSOLUTE BASOPHIL [2]: 0 CELLS/uL | ABSOLUTE EOSINOPHIL [2]: 66.5 CELLS/uL | ABSOLUTE LYMPHOCYTE [2]: 10848.67 CELLS/uL | ABSOLUTE MONOCYTE [2]: 106.17 CELLS/uL | ABSOLUTE SEGMENTED NEUTROPHIL [2]: 1028.67 CELLS/uL | BASOPHIL [2]: 0% | EOSINOPHIL [2]: 0.5% | ERYTHROCYTE COUNT [2]: 5.42 x10E6/uL | HEMATOCRIT [2]: 34.53% | HEMOGLOBIN [2]: 14.07 G/DL | LEUKOCYTE COUNT [2]: 12.05 x10E3/uL | LYMPHOCYTE [2]: 90% | MEAN CORPUSCULAR HEMOGLOBIN [2]: 25.98 pg | MEAN CORPUSCULAR HEMOGLOBIN CONCENTRATION [2]: 40.73 G/DL | MEAN CORPUSCULAR VOLUME [2]: 63.78 fL | MONOCYTE [2]: 1% | NEUTROPHIL [2]: 8.5% | NUCLEATED RED BLOOD CELLS [2]: 0 /100WBC | PLATELET COUNT [2]: 1256.33 x10E3/uL | ALANINE AMINOTRANSFERASE [2]: 55.17 u/L | ALBUMIN [2]: 4.3 G/DL | ALKALINE PHOSPHATASE [2]: 333.83 u/L | ASPARTATE AMINOTRANSFERASE [2]: 81.33 u/L | BLOOD UREA NITROGEN [2]: 15.67 mg/dL | CARBON DIOXIDE [2]: 30 mmol/L | CHLORIDE [2]: 100.67 MEQ/L | CHOLESTEROL [2]: 67.67 mg/dL | CREATINE PHOSPHOKINASE [2]: 221.33 u/L | CREATININE [2]: 0.16 mg/dL | GLUCOSE [2]: 161.33 mg/dL | LACTATE DEHYDROGENASE [2]: 166.83 u/L | LIPASE [2]: 8.33 u/L | PHOSPHORUS [2]: 12.63 mg/dL | POTASSIUM [2]: 5.98 MEQ/L | SODIUM [2]: 144.63 MEQ/L | TOTAL BILIRUBIN [2]: 0.2 mg/dL | TOTAL PROTEIN [2]: 6.15 G/DL | URIC ACID [2]: 1.17 mg/dL | ABSOLUTE BASOPHIL [3]: 0 CELLS/uL | ABSOLUTE EOSINOPHIL [3]: 86.33 CELLS/uL | ABSOLUTE LYMPHOCYTE [3]: 13178.33 CELLS/uL | ABSOLUTE MONOCYTE [3]: 43 CELLS/uL | ABSOLUTE SEGMENTED NEUTROPHIL [3]: 1125.67 CELLS/uL | BASOPHIL [3]: 0% | EOSINOPHIL [3]: 0.67% | ERYTHROCYTE COUNT [3]: 5.28 x10E6/uL | HEMATOCRIT [3]: 34.3% | HEMOGLOBIN [3]: 13.73 G/DL | LEUKOCYTE COUNT [3]: 14.43 x10E3/uL | LYMPHOCYTE [3]: 91% | MEAN CORPUSCULAR HEMOGLOBIN [3]: 26.1 pg | MEAN CORPUSCULAR HEMOGLOBIN CONCENTRATION [3]: 40.1 G/DL | MEAN CORPUSCULAR VOLUME [3]: 65 fL | MONOCYTE [3]: 0.33% | NEUTROPHIL [3]: 8% | NUCLEATED RED BLOOD CELLS [3]: 0 /100WBC | PLATELET COUNT [3]: 1169.33 x10E3/uL | ALANINE AMINOTRANSFERASE [3]: 52.33 u/L | ALBUMIN [3]: 4.17 G/DL | ALKALINE PHOSPHATASE [3]: 377.67 u/L | ASPARTATE AMINOTRANSFERASE [3]: 80 u/L | BLOOD UREA NITROGEN [3]: 14.33 mg/dL | CARBON DIOXIDE [3]: 27.33 mmol/L | CHLORIDE [3]: 103 MEQ/L | CHOLESTEROL [3]: 71 mg/dL | CREATINE PHOSPHOKINASE [3]: 245 u/L | CREATININE [3]: 0.17 mg/dL | GLUCOSE [3]: 170.67 mg/dL | LACTATE DEHYDROGENASE [3]: 111.67 u/L | LIPASE [3]: 9.67 u/L | PHOSPHORUS [3]: 11.67 mg/dL | POTASSIUM [3]: 6.11 MEQ/L | SODIUM [3]: 144.87 MEQ/L | TOTAL BILIRUBIN [3]: 0.23 mg/dL | TOTAL PROTEIN [3]: 5.67 G/DL | URIC ACID [3]: 1.6 mg/dL
